Results: patent US20100076194A1, “SUBSTITUTED 3-AMINO-1-OXO OR THIOXO-1,2,5,6,7,8-HEXAHYDRO-2,7-NAPHTHYRIDINE-4-CARBONITRILES ARE SELECTIVE ALPHA 2B ANTAGONISTS” (ALLERGAN, INC., priority 2008, published 2010)
Read-outs that look alike come from different tables or passages of the source.

What was measured:
mouse alpha2B receptor = biological target: T1, mouse alpha2B receptor (Mus musculus, UniProt P30545); assay: FLIPR Ca+2 influx antagonist assay, alpha 2B; type: cell-based; conditions: for % Antagonism Alpha 2B: value in parentheses
T1 construct: expressed in transfected cells; host or cells: HEK 293
T1 sequence (P30545 1-453): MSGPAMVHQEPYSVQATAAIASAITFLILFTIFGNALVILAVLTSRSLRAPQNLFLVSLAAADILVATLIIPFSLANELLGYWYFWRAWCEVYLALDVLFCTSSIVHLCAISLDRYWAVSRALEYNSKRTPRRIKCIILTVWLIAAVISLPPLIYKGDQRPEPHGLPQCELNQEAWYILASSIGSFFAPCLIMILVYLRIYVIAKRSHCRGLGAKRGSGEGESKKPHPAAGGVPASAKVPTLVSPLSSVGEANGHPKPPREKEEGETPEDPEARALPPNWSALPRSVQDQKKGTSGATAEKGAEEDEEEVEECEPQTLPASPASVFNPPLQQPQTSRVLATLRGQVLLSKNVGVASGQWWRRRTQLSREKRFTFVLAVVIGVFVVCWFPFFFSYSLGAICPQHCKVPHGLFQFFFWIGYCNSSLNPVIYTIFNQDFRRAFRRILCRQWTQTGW
Experimental: (§1) HEK 293 cells stably expressing the human alpha 2A receptor and the chimeric G protein Gqi5, the mouse alpha2B receptor and the G protein G16, and the human alpha 2C receptor and the chimeric G protein Gqi5 are plated in poly-D-lysine coated 96-well plates at 50,000-75,000 cells per well and grown overnight in DMEM supplemented with 10% fetal bovine serum. For FLIPR (fluorometric image plate reader) evaluation, cells are washed twice with HBSS/HEPES Buffer (1× Hanks Buffered Salt Solution, 20 mM HEPES, pH 7.4) prior to the addition of Fluo-4-AM (4 uM Fluo-4-AM, 0.04% pluronic acid in HBSS/HEPES Buffer), a calcium-sensitive dye. Cells are loaded with dye for 60 minutes at 37° C., then washed 4 times with HBSS/HEPES Buffer. For both the agonist and antagonist assay, the test compounds are tested between 0.64 nM-10,000 nM.
(§2) However, the antagonist blocks the transient calcium signal of the standard agonist norepinephrine in a dose-dependent manner. The residual norepinephrine peak height is compared to the non-antagonized norepinephrine peak height for the determination of % antagonism.

[1] = biological target: T2, Alpha 1B adrenergic receptor (Homo sapiens, UniProt P35368); assay: FLIPR Ca+2 influx antagonist assay, alpha 1B; type: cell-based; conditions: for % Antagonism Alpha 1B: value in parentheses, vs norepinephrine peak height
T2 sequence (P35368 1-520): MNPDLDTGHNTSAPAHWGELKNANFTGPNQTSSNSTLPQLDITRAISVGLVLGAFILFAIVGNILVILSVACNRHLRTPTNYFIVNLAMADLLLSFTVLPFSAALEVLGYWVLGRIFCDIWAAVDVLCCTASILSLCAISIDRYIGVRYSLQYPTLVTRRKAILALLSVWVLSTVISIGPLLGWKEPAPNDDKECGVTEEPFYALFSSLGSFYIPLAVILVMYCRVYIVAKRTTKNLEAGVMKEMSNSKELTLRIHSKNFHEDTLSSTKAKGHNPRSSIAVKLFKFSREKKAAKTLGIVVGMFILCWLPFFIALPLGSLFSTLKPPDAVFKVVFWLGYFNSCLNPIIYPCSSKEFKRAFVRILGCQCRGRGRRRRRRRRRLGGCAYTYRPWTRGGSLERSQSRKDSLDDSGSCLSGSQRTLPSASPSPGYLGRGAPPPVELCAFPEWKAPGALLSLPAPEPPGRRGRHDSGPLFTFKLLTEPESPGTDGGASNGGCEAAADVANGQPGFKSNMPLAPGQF

mechanical allodynia = assay: Chung rat nerve ligation model of neuropathic pain (mechanical allodynia); type: in vivo; conditions: co-administered IP at 100 ug/kg each, 30 minutes post drug, FIG. 1A
Experimental: The Chung model is a surgical model of neuropathic pain in rats. The pain state is generated by tight ligation of the L5 and L6 spinal nerves on one side of the rat. The surgical procedure results in a long-lasting mechanical allodynia in the affected foot. Mechanical allodynia is measured using von Frey filaments, where the investigator stimulates the plantar surface of the affected foot. Different sized filaments generate a different force. A painful response is signified by withdrawal of the paw.
Mechanical allodynia is measured at 30 minutes post drug and is reported as the percentage response to the baseline reading taken pre-drug administration.
The lack of allodynial reversal in these rats is also a measure of antagonist ability to block a response.

human alpha 2C receptor = biological target: T3, human alpha 2C receptor (Homo sapiens, UniProt P18825); assay: FLIPR Ca+2 influx antagonist assay, alpha 2C; type: cell-based; conditions: HEK 293 cells, Gqi5; for % Antagonism Alpha 2C: value in parentheses
T3 construct: expressed in transfected cells; host or cells: HEK 293
T3 sequence (P18825 1-462): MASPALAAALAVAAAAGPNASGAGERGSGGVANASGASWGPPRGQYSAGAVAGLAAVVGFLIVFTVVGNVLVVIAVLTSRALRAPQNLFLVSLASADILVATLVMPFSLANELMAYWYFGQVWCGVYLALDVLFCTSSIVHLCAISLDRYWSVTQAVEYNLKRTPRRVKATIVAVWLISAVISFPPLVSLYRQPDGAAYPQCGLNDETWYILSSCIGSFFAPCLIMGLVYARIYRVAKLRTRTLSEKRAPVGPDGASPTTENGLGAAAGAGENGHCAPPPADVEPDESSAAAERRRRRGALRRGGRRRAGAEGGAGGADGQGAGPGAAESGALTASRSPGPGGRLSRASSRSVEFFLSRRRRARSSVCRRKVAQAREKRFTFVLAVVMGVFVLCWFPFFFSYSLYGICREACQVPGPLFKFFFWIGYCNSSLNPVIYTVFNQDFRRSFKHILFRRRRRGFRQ
Experimental: as §1, §2

human alpha 2A receptor = biological target: T4, human alpha 2A receptor (Homo sapiens, UniProt P08913); assay: FLIPR Ca+2 influx antagonist assay, alpha 2A; type: cell-based; conditions: HEK 293 cells, Gqi5; for IC50: antagonism of norepinephrine calcium signal; for % Antagonism Alpha 2A: value in parentheses
T4 construct: expressed in transfected cells; host or cells: HEK 293
T4 sequence (P08913 1-465): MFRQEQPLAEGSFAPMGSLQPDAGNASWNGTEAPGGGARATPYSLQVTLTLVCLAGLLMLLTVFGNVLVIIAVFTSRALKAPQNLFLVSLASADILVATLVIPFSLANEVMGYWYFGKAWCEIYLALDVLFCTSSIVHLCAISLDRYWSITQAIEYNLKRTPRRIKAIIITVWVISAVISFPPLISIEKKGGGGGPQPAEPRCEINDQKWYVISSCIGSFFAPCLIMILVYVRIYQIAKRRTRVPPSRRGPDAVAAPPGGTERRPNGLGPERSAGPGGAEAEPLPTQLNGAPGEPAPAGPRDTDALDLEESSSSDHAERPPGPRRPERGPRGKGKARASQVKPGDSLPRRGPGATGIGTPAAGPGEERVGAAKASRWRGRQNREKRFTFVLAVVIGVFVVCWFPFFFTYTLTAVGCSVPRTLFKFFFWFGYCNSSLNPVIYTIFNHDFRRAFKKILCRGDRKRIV
Experimental: as §1, §2

[2] = biological target: T5, Alpha 1A adrenergic receptor (Homo sapiens, UniProt P35348); assay: FLIPR Ca+2 influx antagonist assay, alpha 1A; type: cell-based; conditions: for % Antagonism Alpha 1A: value in parentheses, vs norepinephrine peak height
T5 sequence (P35348 1-466): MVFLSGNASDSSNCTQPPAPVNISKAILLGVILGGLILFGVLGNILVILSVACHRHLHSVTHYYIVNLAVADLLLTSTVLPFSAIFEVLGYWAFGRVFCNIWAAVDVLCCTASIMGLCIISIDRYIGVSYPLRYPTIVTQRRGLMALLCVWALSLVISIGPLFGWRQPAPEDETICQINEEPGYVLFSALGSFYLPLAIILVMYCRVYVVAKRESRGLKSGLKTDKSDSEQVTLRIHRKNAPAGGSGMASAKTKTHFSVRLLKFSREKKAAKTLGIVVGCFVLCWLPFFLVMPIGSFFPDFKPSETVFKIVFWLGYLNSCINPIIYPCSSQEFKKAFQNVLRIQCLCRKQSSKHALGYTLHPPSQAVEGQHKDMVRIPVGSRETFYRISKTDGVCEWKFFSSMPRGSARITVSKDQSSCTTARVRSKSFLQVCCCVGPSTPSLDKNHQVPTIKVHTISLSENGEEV

[3] = HEK 293 cells, G16, antagonism of norepinephrine calcium signal, read-out: IC50 Alpha 2B

| Compound | IC50 (mouse alpha2B receptor; [3]) | % Antagonism Alpha 2B (mouse alpha2B receptor; HEK 293 cells, G16) | IC50 [1] | % Antagonism Alpha 1B [1] | block of allodynia reversal by 4-Cyclopent-3-enylmethyl-1,3-dihydro-imidazole-2-thione (mechanical allodynia) | % Antagonism Alpha 2C (human alpha 2C receptor) | IC50 (human alpha 2A receptor) | % Antagonism Alpha 2A (human alpha 2A receptor) | IC50 (mouse alpha2B receptor) | % Antagonism Alpha 1A [2] | IC50 ([1]; antagonism of norepinephrine calcium signal, read-out: IC50 Alpha 1B) | IC50 (human alpha 2C receptor; antagonism of norepinephrine calcium signal) | IC50 ([2]; antagonism of norepinephrine calcium signal, read-out: IC50 Alpha 1A) | IC50 [2] |
| --- | --- | --- | --- | --- | --- | --- | --- | --- | --- | --- | --- | --- | --- | --- |
| Cn1c(N)c(C#N)c2c(c1=S)CNCC2 [Example 4, 3-amino-2-methyl-1-thioxo-1,2,5,6,7,8-hexahydro-2,7-naphthyridine-4-carbonitrile] | 342 nM | 93% | – | – | – | – | – | – | – | – | – | – | – | – |
| CN1CCc2c(C#N)c(N)n(C)c(=S)c2C1 [Example 5, 3-amino-2,7-dimethyl-1-thioxo-1,2,5,6,7,8-hexahydro-2,7-naphthyridine-4-carbonitrile] | – | 95% | > 8300 nM | 0% | completely blocks | nd (25) % | 1990 nM | 69% | 10 nM | nd (64) % | – | – | – | – |
| CN1CCc2c(C#N)c(N)n(N)c(=S)c2C1 [Example 6, 2,3-diamino-4-cyano-7-methyl-(1,2,5,6,7,8-hexahydro-2,7-napthyridine-1-thione)] | 204 nM | 112% | – | 19% | – | 29% | – | nd (36) % | – | 19% | > 7500 nM | 1410 nM | > 7500 nM | – |
| CN1Cc2c(c(C#N)c(N)n(N)c2=S)CC1(C)C [Example 7, 2,3-diamino-4-cyano-6,6,7-trimethyl-(1,2,5,6,7,8-hexahydro-2,7-napthyridine-1-thione)] | – | 97% | > 7500 nM | 16% | – | nd (17) % | > 7500 nM | 0% | 29 nM | 98% | – | – | – | 382 nM |
| CCn1c(N)c(C#N)c2c(c1=S)CN(C)CC2 [Example 8, 3-Amino-2-ethyl-4-cyano-7-methyl-(1,2,5,6,7,8-hexahydro-2,7-napthyridine-1-thione)] | 473 nM | 95% | – | – | – | – | – | – | – | – | – | – | – | – |
| CN1CCc2c(C#N)c(N)n(C)c(=O)c2C1 [Example 9, 3-Amino-2-methyl-4-cyano-7-methyl-(1,2,5,6,7,8-hexahydro-2,7-napthyridine-1-ketone)] | 1170 nM | 88% | – | – | – | – | – | – | – | – | – | – | – | – |
